# Assay: in vitro
# Conditions: human, hela cells, % viability
row,SMILES,"viability at 28.5 h, 10 µM [%]"
1,COc1ccc(C2NC(C(=O)O)C3C(=O)N(c4ccc(C)cc4)C(=O)C23)c(OC)c1 (stereo not drawn) [CBK287233],90.2
2,CC1CCC(C(=O)Nc2ccc(C(=O)O)cc2)CC1 (stereo not drawn) [CBK287234],94.8
3,CCCOc1ccc(N2C(=O)CC(N3CCC(C(=O)O)CC3)C2=O)cc1 (stereo not drawn) [CBK287235],102
4,O=C(O)C(Cc1c[nH]c2ccccc12)NCC1CCCCC1 (stereo not drawn) [CBK287238],110
5,CS(=O)(=O)N(Cc1ccccc1F)c1ccccc1C(=O)O [CBK287239],104
6,COc1ccc(NC(=O)c2cnn3c2NC(C(=O)O)=CC3c2ccccc2)cc1 (stereo not drawn) [CBK287240],101
7,CC(=O)NCCCCCC(=O)Nc1ccc(C(=O)O)cc1 [CBK287241],101
8,O=C(O)c1ccc(CNCC(O)c2ccccc2)cc1 (stereo not drawn) [CBK287243],109
9,O=C(O)Cn1nc(-c2ccccc2)c2ccccc2c1=O [CBK287249],88
10,CN(C)CCNCc1ccc(-c2cccc(C(=O)O)c2)o1 [CBK287250],89.9
11,CCCN1C(C)=NS(=O)(=O)c2cc(C(=O)O)ccc21 [CBK287251],92.4
12,COc1ccc(/C=C/C(=O)O)cc1S(=O)(=O)NCc1ccccc1 [CBK287252],87.9
13,CCOc1ccccc1C1C=C(C(=O)O)Nc2c(C(=O)Nc3ccccc3)cnn21 (stereo not drawn) [CBK287253],93.7
14,Cc1ccc2nc(C(=O)O)cc(OCC(=O)Nc3ccccc3F)c2c1 [CBK287255],88.8
15,Cc1ccc2ncnc(NCCCCCC(=O)O)c2c1 [CBK287256],91.4
16,O=C(O)CNCc1ccc(-c2ccc(Cl)cc2)o1 [CBK287258],102
17,COc1ccc(CN2C(=O)CC(C(=O)O)S/C2=N\c2ccc(Cl)cc2)cc1 (stereo not drawn) [CBK287259],106
18,Cc1ccc(-c2noc(-c3cccnc3N3CCC(C(=O)O)CC3)n2)cc1 [CBK287260],90.3
19,O=C(O)CCN1CCN(c2ccc(F)cc2)CC1 [CBK287262],79.6
20,O=C(O)CSC1=CC(=O)N(c2ccc(Br)cc2)C1=O [CBK287263],81.5
21,COc1ncccc1C(=O)NCC(CC(=O)O)c1ccc(Cl)cc1 (stereo not drawn) [CBK287264],92.1
22,O=C(O)c1ccc(CNCCc2c[nH]c3ccccc23)cc1 [CBK287265],87.6
23,CCN1C(=O)CC(C(=O)O)S/C1=N\c1ccc(OC)cc1 (stereo not drawn) [CBK287266],105
24,O=C(O)C1(NCc2ccc(F)cc2)CCCCC1 [CBK287270],87.1

row,SMILES,"viability at 28.5 h, 10 µM [%]"
1,Cc1cc(C)nc(N2CCN(CCC(=O)O)CC2)n1 [CBK287272],97
2,Cc1onc(-c2ccccc2)c1C(=O)n1cccn1 [CBK287274],97.5
3,CNS(=O)(=O)c1ccc2c3c(cccc13)C(=O)N2 [CBK287275],89.7
4,Fc1cnc(Nc2ccccc2)nc1N1CCOCC1 [CBK287279],76.5
5,Cc1nn(-c2ccccn2)c2c1-c1oncc1CC2 [CBK287280],90.7
6,COc1ccc(C2CC(c3ccccc3O)=NN2)cc1 (stereo not drawn) [CBK287281],77.8
7,O=C(Nc1ccc(F)cc1)C1CC(=O)n2c(nc3ccccc32)N1 (stereo not drawn) [CBK287282],101
8,c1nc2nc[nH]c(N3CCN(Cc4ccc5c(c4)OCO5)CC3)c-2n1 [CBK287283],83.5
9,Cc1ccc(NC(=O)c2cnc3ccc(C)cn3c2=O)cc1 [CBK287285],90.2
10,Cc1ccc2ncc(C(=O)Nc3ccc(F)cc3F)c(=O)n2c1 [CBK287286],95.6
11,CCOc1ccc(C(=O)Nc2nonc2CC)cc1 [CBK287287],94.3
12,Fc1ccc(OCc2nn3cnnc3s2)cc1 [CBK287288],102
13,CC(C)(C)c1nnc2sc(-c3cccnc3)nn12 [CBK287289],112
14,Cc1csc2ncc(C(=O)NCc3ccc4c(c3)OCO4)c(=O)n12 [CBK287292],109
15,CCOc1ccc2nc(NC(=O)CC)sc2c1 [CBK287295],107
16,COc1ccc(-c2cn3cccnc3n2)cc1NC(=O)c1ccccc1 [CBK287296],73.8
17,O=C(CSc1ccc(-c2ccncc2)nn1)Nc1ccc(F)cc1 [CBK287297],91
18,CC1CCc2nc(NC(=O)c3ccccc3)sc2C1 (stereo not drawn) [CBK287298],97.2
19,COc1ccc(C(=O)Nc2nc3c(C)cccc3s2)c(OC)c1 [CBK287301],82.6
20,Cc1ccc(C(=O)Nc2nc3ccc4nc(C)sc4c3s2)cc1 [CBK287305],91.8
21,COc1ccc(C(=O)Nc2nc3ccc(OC)cc3s2)cc1 [CBK287306],96.5
22,CCOc1cccc2sc(NC(=O)CC)nc12 [CBK287307],86.5
23,Cc1cc(C)c2nc(NC(=O)c3ccccc3)sc2c1 [CBK287308],97.9
24,CC(=O)c1ccc(C(=O)Nc2ccc3nc(C)sc3c2)cc1 [CBK287310],95.5

# — publication PMC12040169 (PLOS Biology, 2025)
